{"source": "patent US7097965B2", "about": "(priority 1996, dated 2006)", "system": "mouse mastocytoma cells", "format": "cell-based", "data": [{"smiles": "CC(=O)N[C@@H](CSC(=O)[C@]1([C@@H](O)C(C)C)NC(=O)[C@H](C)[C@@H]1O)C(=O)O", "note": "[lactacystin]", "values": [{"measurement": "lysis of the target cells by CTLs", "result": "significantly decreased lysis"}]}]}
